# From US8688387B2, “Method for the determination of intra- and intermolecular interactions in aqueous solution” (Bayer CropScience AG, priority 2006, dated 2014)
# How the values were obtained:
# helix [1] = test: Destabilization of a helix in which thymidin is replaced; settings: corresponding to the 16 kJ/mol destabilization
# Description: The importance of a complete H-bond network in nucleotide recognition has been investigated. Molecular recognition usually involves several H-bonds. The influence of unsatisfied interfacial H-bond functions can be seen in the destabilization of a helix in which thymidin is replaced by difluortoluoldesoxynucleosid. The experiments have shown that these helices exist in aqueous solution but are destabilized by 16 kJ/mol compared to the helices with thymidin (Moran et al., J. Am. Chem. Soc. 1997, 119: 2056-2057). The authors conclude that the specificity of base pair recognition may not be due to H-bonding but to space filling since the modified base is incorporated into the double helix even though the H-bond cannot be made. […] This value agrees well with the mismatched pairing observed for the incorporation of nucleotides into DNA by polymerase enzymes (1 in 10^3-10^5) (Loeb and Kunkel, Annu. Rev. Biochem. 1982: 52, 429) and the preference of correct tRNA compared to near cognate tRNA in the codon:anticodon recognition (1 in 10^−3.5) (Thompson and Karim, Proc. Natl. Acad. Sc. U.S.A. 1982, 79: 4922-26).
# helix [2] = settings: aqueous solution, compared to the helices with thymidin; cited from earlier work
structure (smiles),measurement,setting,value
Cc1cc([C@H]2C[C@H](O)[C@@H](CO)O2)c(F)cc1F [difluortoluoldesoxynucleosid],reduced affinity,helix [1],1000-10000 times
same,destabilization of helices,helix [2],16 kJ/mol
